Our source for the Ki and inhibition values is ChEMBL document CHEMBL2390893, “Natural product hybrid and its superacid synthesized analogues: dodoneine and its derivatives show selective inhibition of carbonic anhydrase isoforms I, III, XIII and XIV” (Bioorg Med Chem, 2013).

The source made the active and inactive calls. The calls are words filed in the database; no cut-off is given here.

The target in assay [1] is T1, Carbonic anhydrase 4 (Homo sapiens, UniProt P22748). Briefly: Inhibition of human carbonic anhydrase 4 preincubated for 15 mins by stopped flow CO2 hydrase assay.
Assay [2] concerns the target Carbonic anhydrase 6 (Homo sapiens) (UniProt P23280). Briefly: Inhibition of human carbonic anhydrase 6 at >100 uM preincubated for 15 mins by stopped flow CO2 hydrase assay.
Assay [3] deals with T2, Carbonic anhydrase 2 (Homo sapiens, UniProt P00918). Nature of the assay: Inhibition of human carbonic anhydrase 2 preincubated for 15 mins by stopped flow CO2 hydrase assay.
Assay [4] addresses T3, Carbonic anhydrase 12 (Homo sapiens, UniProt O43570). Briefly: Inhibition of human carbonic anhydrase 12 preincubated for 15 mins by stopped flow CO2 hydrase assay.
Assay [5] deals with T4, Carbonic anhydrase 14 (Homo sapiens, UniProt Q9ULX7). Briefly: Inhibition of human carbonic anhydrase 14 preincubated for 15 mins by stopped flow CO2 hydrase assay.
Assay [6] concerns the target T5, Carbonic anhydrase 5B, mitochondrial (Homo sapiens, UniProt Q9Y2D0). Nature of the assay: Inhibition of human carbonic anhydrase 5b preincubated for 15 mins by stopped flow CO2 hydrase assay.
Assay [7] concerns the target T6, Carbonic anhydrase 7 (Homo sapiens, UniProt P43166). Nature of the assay: Inhibition of human carbonic anhydrase 7 at >100 uM preincubated for 15 mins by stopped flow CO2 hydrase assay.
For assay [8], the target named is T7, Carbonic anhydrase 1 (Homo sapiens, UniProt P00915). Briefly: Inhibition of human carbonic anhydrase 1 preincubated for 15 mins by stopped flow CO2 hydrase assay.
Target sequence in this assay (P00915 whole entry): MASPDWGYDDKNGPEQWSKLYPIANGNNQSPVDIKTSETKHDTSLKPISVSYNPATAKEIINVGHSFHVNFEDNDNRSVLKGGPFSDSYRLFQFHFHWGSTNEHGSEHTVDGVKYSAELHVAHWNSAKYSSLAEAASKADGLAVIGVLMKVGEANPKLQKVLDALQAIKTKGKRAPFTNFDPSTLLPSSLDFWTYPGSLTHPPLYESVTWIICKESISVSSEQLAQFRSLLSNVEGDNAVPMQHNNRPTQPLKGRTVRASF
The target of the next assay is Carbonic anhydrase 13 (Mus musculus, UniProt Q9D6N1). Nature of the assay: Inhibition of mouse carbonic anhydrase 13 preincubated for 15 mins by stopped flow CO2 hydrase assay.
Assay [9] addresses T8, Carbonic anhydrase 3 (Homo sapiens, UniProt P07451). Briefly: Inhibition of human carbonic anhydrase 3 at >100 uM preincubated for 15 mins by stopped flow CO2 hydrase assay.
The target in assay [10] is T9, Carbonic anhydrase 9 (Homo sapiens, UniProt Q16790). Briefly: Inhibition of human carbonic anhydrase 9 preincubated for 15 mins by stopped flow CO2 hydrase assay.
Assay [11] deals with T10, Carbonic anhydrase 5A, mitochondrial (Homo sapiens, UniProt P35218). Nature of the assay: Inhibition of human carbonic anhydrase 5a preincubated for 15 mins by stopped flow CO2 hydrase assay.
The target in assay [12] is T10, Carbonic anhydrase 5A, mitochondrial. Briefly: Inhibition of human carbonic anhydrase 5a at >100 uM preincubated for 15 mins by stopped flow CO2 hydrase assay.
Assay [13] deals with T5, Carbonic anhydrase 5B, mitochondrial. Briefly: Inhibition of human carbonic anhydrase 5b at >100 uM preincubated for 15 mins by stopped flow CO2 hydrase assay.
Assay [14] concerns the target T2, Carbonic anhydrase 2. Briefly: Inhibition of human carbonic anhydrase 2 at >100 uM preincubated for 15 mins by stopped flow CO2 hydrase assay.
For assay [15], the target named is T9, Carbonic anhydrase 9. Briefly: Inhibition of human carbonic anhydrase 9 at >100 uM preincubated for 15 mins by stopped flow CO2 hydrase assay.
Assay [16] addresses T8, Carbonic anhydrase 3. Nature of the assay: Inhibition of human carbonic anhydrase 3 preincubated for 15 mins by stopped flow CO2 hydrase assay.
Assay [17] addresses T3, Carbonic anhydrase 12. Briefly: Inhibition of human carbonic anhydrase 12 at >100 uM preincubated for 15 mins by stopped flow CO2 hydrase assay.
For assay [18], the target named is T6, Carbonic anhydrase 7. Briefly: Inhibition of human carbonic anhydrase 7 preincubated for 15 mins by stopped flow CO2 hydrase assay.
Assay [19] addresses T7, Carbonic anhydrase 1. Nature of the assay: Inhibition of human carbonic anhydrase 1 at >100 uM preincubated for 15 mins by stopped flow CO2 hydrase assay.
Target sequence in this assay (P00915 2-261 limits assumed): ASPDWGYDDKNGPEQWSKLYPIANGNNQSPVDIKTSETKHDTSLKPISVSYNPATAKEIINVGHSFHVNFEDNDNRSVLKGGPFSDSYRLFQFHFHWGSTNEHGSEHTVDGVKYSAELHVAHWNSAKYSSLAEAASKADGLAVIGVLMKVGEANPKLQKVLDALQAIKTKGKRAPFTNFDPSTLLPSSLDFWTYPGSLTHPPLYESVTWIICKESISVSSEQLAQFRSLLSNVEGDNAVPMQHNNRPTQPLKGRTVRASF
The target of assay [20] is T1, Carbonic anhydrase 4. Briefly: Inhibition of human carbonic anhydrase 4 at >100 uM preincubated for 15 mins by stopped flow CO2 hydrase assay.
The target in assay [21] is T4, Carbonic anhydrase 14. Nature of the assay: Inhibition of human carbonic anhydrase 14 at >100 uM preincubated for 15 mins by stopped flow CO2 hydrase assay.

T4 sequence (Q9ULX7 whole entry): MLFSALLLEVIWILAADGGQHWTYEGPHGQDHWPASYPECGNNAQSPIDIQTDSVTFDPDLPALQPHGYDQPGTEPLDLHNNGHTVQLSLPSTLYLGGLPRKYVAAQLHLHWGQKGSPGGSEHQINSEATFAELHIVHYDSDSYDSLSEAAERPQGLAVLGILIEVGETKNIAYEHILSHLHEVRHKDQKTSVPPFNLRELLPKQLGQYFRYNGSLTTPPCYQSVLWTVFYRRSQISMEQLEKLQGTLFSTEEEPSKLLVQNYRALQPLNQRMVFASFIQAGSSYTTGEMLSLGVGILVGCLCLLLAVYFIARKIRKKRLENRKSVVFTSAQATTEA
T8 sequence (P07451 whole entry): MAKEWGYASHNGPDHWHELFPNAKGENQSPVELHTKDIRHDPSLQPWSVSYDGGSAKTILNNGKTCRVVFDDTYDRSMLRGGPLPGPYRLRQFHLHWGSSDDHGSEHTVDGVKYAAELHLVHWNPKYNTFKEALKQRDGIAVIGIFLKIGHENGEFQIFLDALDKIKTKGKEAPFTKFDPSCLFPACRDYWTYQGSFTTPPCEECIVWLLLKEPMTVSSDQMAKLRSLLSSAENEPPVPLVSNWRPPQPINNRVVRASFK
T6 sequence (P43166 whole entry): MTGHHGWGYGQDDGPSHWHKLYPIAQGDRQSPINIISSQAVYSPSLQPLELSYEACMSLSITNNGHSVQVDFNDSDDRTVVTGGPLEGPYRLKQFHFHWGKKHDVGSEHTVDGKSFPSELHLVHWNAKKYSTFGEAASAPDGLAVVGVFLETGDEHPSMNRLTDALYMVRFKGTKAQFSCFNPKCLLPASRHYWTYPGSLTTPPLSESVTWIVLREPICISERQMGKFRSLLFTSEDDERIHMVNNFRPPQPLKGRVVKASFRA
T10 sequence (P35218 whole entry): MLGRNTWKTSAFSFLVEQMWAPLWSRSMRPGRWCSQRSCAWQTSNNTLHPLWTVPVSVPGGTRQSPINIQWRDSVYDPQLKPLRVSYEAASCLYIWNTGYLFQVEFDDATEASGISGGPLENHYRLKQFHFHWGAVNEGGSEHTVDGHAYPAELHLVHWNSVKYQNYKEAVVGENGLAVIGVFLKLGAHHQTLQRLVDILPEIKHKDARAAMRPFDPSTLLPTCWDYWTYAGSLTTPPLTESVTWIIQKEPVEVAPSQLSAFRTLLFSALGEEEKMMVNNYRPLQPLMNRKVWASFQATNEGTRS
Carbonic anhydrase 6 (Homo sapiens), sequence (P23280 whole entry): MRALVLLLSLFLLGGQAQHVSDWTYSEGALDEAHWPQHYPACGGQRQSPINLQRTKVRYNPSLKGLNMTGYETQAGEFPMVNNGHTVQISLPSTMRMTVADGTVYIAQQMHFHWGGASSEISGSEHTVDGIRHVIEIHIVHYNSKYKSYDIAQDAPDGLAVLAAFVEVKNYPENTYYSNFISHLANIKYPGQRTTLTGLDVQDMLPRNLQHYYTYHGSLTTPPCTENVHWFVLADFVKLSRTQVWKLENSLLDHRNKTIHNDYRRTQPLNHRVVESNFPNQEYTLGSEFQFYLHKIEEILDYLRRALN
T5 sequence (Q9Y2D0 whole entry): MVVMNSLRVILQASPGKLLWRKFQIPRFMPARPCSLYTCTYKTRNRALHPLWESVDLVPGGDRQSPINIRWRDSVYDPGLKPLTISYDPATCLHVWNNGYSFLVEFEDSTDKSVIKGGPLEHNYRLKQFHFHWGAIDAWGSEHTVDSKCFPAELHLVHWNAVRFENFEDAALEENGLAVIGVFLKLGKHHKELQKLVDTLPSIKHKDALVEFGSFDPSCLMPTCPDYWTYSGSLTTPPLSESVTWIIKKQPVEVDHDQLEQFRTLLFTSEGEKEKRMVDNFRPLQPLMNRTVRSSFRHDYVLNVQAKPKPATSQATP
T3 sequence (O43570 whole entry): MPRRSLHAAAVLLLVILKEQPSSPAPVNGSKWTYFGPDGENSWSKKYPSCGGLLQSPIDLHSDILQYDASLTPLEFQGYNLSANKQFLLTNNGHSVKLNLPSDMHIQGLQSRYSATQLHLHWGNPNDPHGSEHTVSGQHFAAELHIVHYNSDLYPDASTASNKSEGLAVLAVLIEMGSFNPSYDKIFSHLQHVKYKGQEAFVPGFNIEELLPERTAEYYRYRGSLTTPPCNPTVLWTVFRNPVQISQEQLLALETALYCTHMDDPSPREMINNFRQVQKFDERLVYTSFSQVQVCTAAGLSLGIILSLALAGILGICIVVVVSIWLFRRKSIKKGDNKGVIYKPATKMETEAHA
T1 sequence (P22748 whole entry): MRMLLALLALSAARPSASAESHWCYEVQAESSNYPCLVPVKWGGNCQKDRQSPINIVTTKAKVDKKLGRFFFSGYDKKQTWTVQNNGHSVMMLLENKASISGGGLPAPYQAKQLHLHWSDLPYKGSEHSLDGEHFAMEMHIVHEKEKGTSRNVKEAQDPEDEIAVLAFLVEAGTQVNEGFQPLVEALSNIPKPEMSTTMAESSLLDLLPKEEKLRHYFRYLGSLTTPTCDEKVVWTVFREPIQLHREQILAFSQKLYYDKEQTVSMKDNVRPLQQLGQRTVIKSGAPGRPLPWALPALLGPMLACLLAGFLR
Carbonic anhydrase 13, sequence (Q9D6N1 whole entry): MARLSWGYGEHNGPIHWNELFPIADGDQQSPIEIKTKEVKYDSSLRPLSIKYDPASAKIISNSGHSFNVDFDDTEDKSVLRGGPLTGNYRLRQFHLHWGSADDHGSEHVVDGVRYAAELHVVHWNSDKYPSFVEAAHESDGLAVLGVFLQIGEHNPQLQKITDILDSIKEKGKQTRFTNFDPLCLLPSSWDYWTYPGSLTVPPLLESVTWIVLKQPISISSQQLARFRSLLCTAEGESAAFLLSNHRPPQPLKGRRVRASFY

Regarding `O=C1C=CC[C@H](C[C@@H](O)CCc2cc(Br)c(O)cc2Br)O1`, the Ki on Carbonic anhydrase 4 [1] came out at 13.7 µM; on Carbonic anhydrase 2 [3], 21.8 µM; at Carbonic anhydrase 12 [4], 10.8 µM; on Carbonic anhydrase 14 [5], 12.5 µM; in assay [6], 6.32 µM; on Carbonic anhydrase 1 [8], 0.76 µM. The inhibition constant Ki on Carbonic anhydrase 13 worked out at 7.89 µM; on Carbonic anhydrase 9 [10] it was 15.7 µM; in assay [11], 8.55 µM. In addition, the inhibition entry (in assay [2]; on Carbonic anhydrase 7 [7]; on Carbonic anhydrase 3 [9]) was “inactive” throughout.

For `O=C1C=CC[C@H](C[C@@H](O)CCc2ccc(O)cc2)O1`, the inhibition entry (in assay [12]; in [13]; at Carbonic anhydrase 2 [14]; at Carbonic anhydrase 9 [15]; in assay [2]; at Carbonic anhydrase 7 [7]) was “inactive” throughout. Further, the inhibition entry at Carbonic anhydrase 12 [17] was “inactive”. The Ki was 9.61 µM on Carbonic anhydrase 4 [1]; 10.3 µM at Carbonic anhydrase 3 [16]; 9.34 µM at Carbonic anhydrase 14 [5]; 5.48 µM at Carbonic anhydrase 1 [8]; 9.27 µM on Carbonic anhydrase 13.

Turning to `O=C1C=CC[C@H](C[C@H](F)CCc2ccc(O)cc2)O1`, the inhibitory constant (Ki) was 5.36 µM at Carbonic anhydrase 4 [1]; 36.9 µM on Carbonic anhydrase 2 [3]; 1.48 µM on Carbonic anhydrase 12 [4]; 2.44 µM on Carbonic anhydrase 14 [5]; 1.36 µM in assay [6]; 0.13 µM at Carbonic anhydrase 1 [8]. For the same compound, the Ki at Carbonic anhydrase 13 was found to be 0.96 µM; at Carbonic anhydrase 9 [10] it was 3.57 µM; at Carbonic anhydrase 7 [18], 24.9 µM; in [11], 7.13 µM. Further, the inhibition entry (in assay [2]; at Carbonic anhydrase 3 [9]) was “inactive” in each case.

With `O=C1C=CC[C@H](C[C@@H](O)CCc2ccc(O)cc2O)O1`, the inhibition result (at Carbonic anhydrase 2 [14]; in [2]; at Carbonic anhydrase 7 [7]; on Carbonic anhydrase 3 [9]) was “inactive” in each case. Further, the inhibitory constant (Ki) amounted to 4.12 µM on Carbonic anhydrase 4 [1]; 24.5 µM at Carbonic anhydrase 12 [4]; 7.24 µM at Carbonic anhydrase 14 [5]; 13.7 µM in assay [6]; 0.38 µM on Carbonic anhydrase 1 [8]; 8.13 µM at Carbonic anhydrase 13. The inhibitory constant (Ki) at Carbonic anhydrase 9 [10] came out at 32.6 µM; in assay [11], 21.6 µM.

Regarding `O=C1C[C@H]2C[C@H](C[C@H](CCc3ccc(O)cc3)O2)O1`, the inhibition entry (in assay [12]; in assay [13]; on Carbonic anhydrase 2 [14]; at Carbonic anhydrase 9 [15]; in [2]; at Carbonic anhydrase 1 [19]) was “inactive” in each case. Further, the inhibition result on Carbonic anhydrase 4 [20], at Carbonic anhydrase 7 [7], on Carbonic anhydrase 14 [21] and at Carbonic anhydrase 12 [17] was “inactive” each time. Moreover, the figures for the Ki at Carbonic anhydrase 3 [16] and on Carbonic anhydrase 13 were 10.8 µM and 0.91 µM, respectively.

Take `O=C1C[C@H]2C[C@H](C[C@H](CCc3ccc(O)cc3O)O2)O1`: the inhibition result (in [12]; in assay [13]; on Carbonic anhydrase 2 [14]; at Carbonic anhydrase 9 [15]; in assay [2]; on Carbonic anhydrase 1 [19]) was “inactive” each time. For the same compound, the inhibition result at Carbonic anhydrase 4 [20], at Carbonic anhydrase 7 [7], on Carbonic anhydrase 14 [21] and on Carbonic anhydrase 12 [17] was “inactive” each time. Further, the Ki worked out at 5.13 µM on Carbonic anhydrase 3 [16] and 0.34 µM on Carbonic anhydrase 13.

For orientation: Ki means a measure of affinity in units of concentration, obtained from inhibition or displacement.
